Data set [1] deals with mutant FLT3. To be noted: in vitro; read-out: half-maximal inhibitory concentration (IC50), mutant FLT3; cited from earlier work.
The test system of data set [2] is CYP3A4/5. The note with it: in vitro; read-out: IC50, CYP3A4/5 activity (midazolam 1′-hydroxylation); cited from earlier work.
For data set [3] the following is noted: cited from earlier work.
The test system of data set [4] is human serum protein α1-acid glycoprotein (AAG). On the set-up: method as in PMID 11230495. The note with it: cited from earlier work.
Data set [5] can be described thus: Midostaurin PK when administered with ketoconazole. The note with it: for Cmax / Tmax: human, oral; for Cmax: C max, adjusted geometric mean; for Tmax: t max, median; for t max, Hodges–Lehmann estimate of median difference (90 % distribution-free CI): ketoconazole + midostaurin vs placebo + midostaurin. As for the experimental part:
According to the US Food and Drug Administration, ketoconazole 400 mg once daily is the recommended dose to evaluate DDIs involving CYP3A4 inhibition. [drawing 1]
Adverse events (AEs) were recorded during the study and up to 1 month (28 days) after the end of study. Volunteers remained at the clinic until AEs were common toxicity criteria (CTC) grade ≤1.
A point estimate and the corresponding 90 % CI for the treatment effect were calculated for the test treatment compared with the reference. These were anti-logged to obtain the point estimate and the 90 % CI for the geometric mean ratio (GMR) on the untransformed scale. […] All ANOVAs were performed using SAS software (SAS Institute Inc., Cary, NC, USA).
(§1) The concentration of ketoconazole in plasma was assessed using a validated LC–MS/MS assay with an LLOQ of 50.0 ng/mL (WuXi Pharmatech Co, Ltd, China). The concentration of rifampicin in plasma was measured using a validated LC–MS/MS assay with an LLOQ of 5.0 ng/mL (SGS, Cephac Europe, SAS). Plasma concentrations of midazolam and its metabolite 1′-hydroxymidazolam, which is generated by CYP3A4 and CYP3A5 in humans, were measured using a validated LC–MS/MS assay with an LLOQ of ≈0.100 ng/mL (SGS, Cephac Europe, SAS). The plasma concentration of 4β-hydroxycholesterol was measured using a validated LC–MS/MS assay with an LLOQ of 3.0 ng/mL (SGS, Cephac Europe, SAS). The concentrations of 6β-hydroxycortisol and cortisol in urine were determined using validated LC–MS/MS assays with an LLOQ of 10.0 ng/mL for 6β-hydroxycortisol and 1.0 ng/mL for cortisol. The ratio of 6β-hydroxycortisol to cortisol was subsequently calculated (SGS, Cephac Europe, SAS). See Supplementary Table 2 for detailed bioanalytical methods for all 3 studies.

Data set [6] can be described thus: Midostaurin PK when administered with rifampicin. To be noted: for decrease in exposure (AUClast) in midostaurin + rifampicin arm: compared with midostaurin alone; for AUC(0-t) / Cmax / half-life / Tmax: human, oral; for AUC(0-t) / Cmax / half-life / Tmax / AUC0–inf, adjusted geometric mean / AUC0–last, adjusted geometric mean / C max, adjusted geometric mean / t 1/2, adjusted geometric mean / t max, median: plasma, n = 20; for AUC(0-t): AUC0–last; for AUC(0-t) / Cmax: adjusted geometric mean; for Cmax: C max; for half-life: t 1/2, adjusted geometric mean; for Tmax: t max, median. As for the experimental part:
These endogenous molecules served as exploratory biomarkers for CYP3A4 activity in vivo [21, 22].
A point estimate and the corresponding 90 % CI for the treatment effect (test vs reference) were calculated. These were anti-logged to obtain the GMR and respective 90 % CI. […] The median difference was estimated with the Hodges–Lehmann estimator and its respective exact two-sided 90 % CI. All formal comparative statistical analyses were performed using SAS software.
as §1

Where [7] appears, read: plasma, plasma, Ketoconazole + midostaurin arm, n = 18.
The mark [8] stands for this setting: plasma, plasma, Placebo + midostaurin arm, ketoconazole study, n = 18.
The mark [9] stands for this setting: Placebo + midostaurin arm, rifampicin study.
[10] abbreviates: plasma, Ketoconazole + midostaurin arm, n = 18.
Setting [11] is: plasma, Placebo + midostaurin arm, ketoconazole study, n = 18.

Here are results for two compounds from publication PMC3834177 (Cancer Chemotherapy and Pharmacology, 2013).

As a reminder, the Cmax is the highest concentration seen after dosing. What is called Tmax is the time from dosing to the highest level. The AUC(0-t) is the area under the concentration-time curve up to a stated or last time point.

Molecules are shown by their SMILES. Read-outs that look alike come from different tables or passages of the source. Marks after values point to notes of the source that are not given here.

As for `CO[C@@H]1[C@H](N(C)C(=O)c2ccccc2)C[C@H]2O[C@]1(C)n1c3ccccc3c3c4c(c5c6ccccc6n2c5c31)C(=O)NC4O` (mixture of isomers) [CGP52421], the IC50 in data set [1] was 584 nM. Moreover, in data set [2], the IC50 was 1500 nM. Moreover, in data set [3], the “apparent elimination half-life (t 1/2)” value is listed as 16 to 31 days, the half-life is given as greater than 1 month and the “major pathway for elimination” value is “Fecal excretion”. Also, in data set [4], the “bound to AAG” value is 88–98%. In data set [5] (setting [7]), the Cmax was found to be 70.9 ng/mL and the Tmax is 120 h. In data set [5] (setting [8]), the peak concentration (Cmax) is 145 ng/mL and the time to peak (Tmax) was determined as 2 h. Also, in data set [5], the “t max, Hodges–Lehmann estimate of median difference (90 % distribution-free CI)” value is on record as 116.7 (93.9, 117.9) h. For the same compound, the “decrease in exposure (AUClast) in midostaurin + rifampicin arm” value in data set [6] is reported as 2.45 fold. In addition, in data set [6] (setting [9]), the AUC(0-t) is 14600 ng·h/mL, the Cmax is 196 ng/mL, the half-life was 7.29 days and the Tmax was 3 h. Besides, in data set [6] (Rifampicin + midostaurin arm), the AUC(0-t) was 5960 ng·h/mL, the Cmax was 128 ng/mL, the half-life was 3.63 days and the Tmax amounted to 2.51 h. Further, in data set [6] (in vivo), the “median t max prolonged in midostaurin + placebo arm compared with midostaurin + rifampicin arm” value is recorded as 1.2 fold.
As for `CN(C(=O)c1ccccc1)[C@@H]1C[C@H]2O[C@@](C)([C@@H]1O)n1c3ccccc3c3c4c(c5c6ccccc6n2c5c31)C(=O)NC4` [CGP62221], the IC50 in data set [1] was 26 nM; in data set [2] it was less than 1000 nM. Further, in data set [3], the “major pathway for elimination” value is “Fecal excretion”. The “bound to AAG” value in data set [4] is 88–98%. Besides, the “elimination t 1/2 in the presence of ketoconazole” value in data set [5] (compared with placebo) is “prolonged”. Also, in data set [5], the “t max, Hodges–Lehmann estimate of median difference (90 % distribution-free CI)” value is 114.0 (92.8, 116.0) h. For the same compound, the “AUC0–inf, adjusted geometric mean” value in data set [5] (plasma, Ketoconazole + midostaurin arm (midostaurin 50 mg once, ketoconazole 400 mg daily), n = 18) was 110,234.87 ng h/mL; in data set [5] (plasma, Placebo + midostaurin arm (midostaurin 50 mg once), ketoconazole study, n = 18) it was 31,366.63 ng h/mL; in data set [6] (Placebo + midostaurin arm (midostaurin 50 mg once), rifampicin study) it was 35,146.80 ng h/mL; in data set [6] (Rifampicin + midostaurin arm (midostaurin 50 mg once, rifampicin 600 mg daily)), 2,699.43 ng h/mL. Besides, the “AUC0–last, adjusted geometric mean” value is on record as 27,237.87 ng h/mL in data set [5] (setting [10]), 27,414.44 ng h/mL in data set [5] (setting [11]), 32,266.80 ng h/mL in data set [6] (setting [9]) and 2,501.48 ng h/mL in data set [6] (Rifampicin + midostaurin arm). Moreover, the “C max, adjusted geometric mean” value is given as 329.76 ng/mL in data set [5] (setting [10]), 586.78 ng/mL in data set [5] (setting [11]), 631.46 ng/mL in data set [6] (setting [9]) and 396.25 ng/mL in data set [6] (Rifampicin + midostaurin arm). The “t 1/2, adjusted geometric mean” value in data set [5] (plasma, Ketoconazole + midostaurin arm, for 4 volunteers only (flat terminal phase in others)) was 142.01^b h; in data set [5] (setting [11]) it was 36.60 h; in data set [6] (setting [9]), 33.74 h; in data set [6] (Rifampicin + midostaurin arm), 7.02 h. In addition, the “t max, median” value worked out at 3.51 h in data set [5] (setting [11]), 3.00 h in data set [6] (setting [9]) and 1.50 h in data set [6] (Rifampicin + midostaurin arm). The “decrease in exposure (AUClast) in midostaurin + rifampicin arm” value in data set [6] came out at 13.0 fold.
